Source: patent US9221783B2, “Phenylalkyl sulfamate compound and muscle relaxant composition comprising the same” (BIO-PHARM SOLUTIONS CO., LTD., priority 2012, dated 2015)

Each compound was assayed on male mice (ICR) (assay: Muscle relaxation activity by grip strength test (forelimbs)). Conditions: Mus musculus, ip, intraperitoneal, ED50 = 50% of muscle relaxation activity compared to vehicle only (100%), determined at 0.5 h (time of maximum effect).
Format: in vivo
Procedure: For testing, male mice (ICR) were purchased from ORIENT BIO INC. (Korea), divided into several groups with 6 mice in each group, and were adapted for 4-5 days. The mice having the weight ranging from 19 g to 26 g were employed for the test. The pharmacological effect of the test compounds on muscle relaxation was evaluated by Rotarod test, grip strength test, and muscular force (wire hang) test. All mice were adapted to the test environment at one hour before starting the tests. The pharmacological effects of all the test compounds were evaluated by administration through peritoneal cavity of the mice (10 ul/g, bw).
The test was conducted before and after administration of the compounds to evaluate the effects thereof. […] The mouse was made to grip the rod with its forelimbs, and its tail was pulled, where the force at which the mouse detached from the rod was recorded. The instrument indicated the force in grams. All of the mice were given 3 opportunities for test, and the 3 highest values among the test opportunities were selected and the mean value was used as the test result. […] Psychopharmacol. 110: 92-96’.
The obtained results are shown as mean±sem. The difference between the groups was statistically analyzed by ANOVA, and then, further examined by Dunnett's test or Bonferroni test. If p is less than 0.05, it was determined that the difference between the groups had statistical significance.
For `CC1(C)O[C@H](c2ccccc2I)[C@@H](COS(N)(=O)=O)O1` [Example 27, ((4R,5R)-5-(2-iodophenyl)-2,2-dimethyl-1,3-dioxolan-4-yl)methyl sulfamate], the ED50 was 378 mg/kg.

Same assay, conditions: intraperitoneal, dose 200 (unit not given)
For `CCC1(CC)O[C@@H](COS(N)(=O)=O)[C@H](c2ccccc2Cl)O1` [Example 8, ((4S,4S)-5-(2-chlorophenyl)-2,2-diethyl-1,3-dioxolan-4-yl)methyl sulfamate], the “Grip strength, percentage compared to the vehicle only (100%)” value (“Grip strength, percentage … (100%)” for short) was 200 (59.6%).
With `NS(=O)(=O)OC[C@@H]1OC2(CCCC2)O[C@H]1c1ccccc1Cl` [Example 10, ((2S,3S)-3-(2-chlorophenyl)-1,4-dioxaspiro[4,4]nonan-2-yl)methyl sulfamate] the “Grip strength, percentage … (100%)” value was 200 (91.2%).
With `NS(=O)(=O)OC[C@@H]1OC2(CCCCC2)O[C@H]1c1ccccc1Cl` [Example 12, ((2S,3S)-3-(2-chlorophenyl)-1,4-dioxaspiro[4,5]decan-2-yl)methyl sulfamate] the “Grip strength, percentage … (100%)” value was 200 (57.7%).
With `CC1(C)O[C@@H](COS(N)(=O)=O)[C@H](c2ccc(Cl)cc2Cl)O1` [Example 40, ((4S,5S)-5-(2,4-dichlorophenyl)-2,2-dimethyl-1,3-dioxolan-4-yl)methyl sulfamate] the “Grip strength, percentage … (100%)” value was 200 (79.3%).
`CC1(C)O[C@@H](COS(N)(=O)=O)[C@H](c2c(Cl)cccc2Cl)O1` [Example 52, ((4S,5S)-5-(2,6-dichlorophenyl)-2,2-dimethyl-1,3-dioxolan-4-yl)methyl sulfamate] was tested, and the “Grip strength, percentage … (100%)” value was 200 (28.2%).
For `CCC1(CC)O[C@@H](COS(N)(=O)=O)[C@H](c2ccccc2N)O1` [Example 70, ((4S,5S)-5-(2-aminophenyl)-2,2-diethyl-1,3-dioxolan-4-yl)methyl sulfamate], the “Grip strength, percentage … (100%)” value was 200 (78.6%).
For `Nc1ccccc1[C@@H]1OC2(CCCC2)O[C@H]1COS(N)(=O)=O` [Example 72, ((2S,3S)-3-(2-aminophenyl)-1,4-dioxaspiro[4,4]nonan-2-yl)methyl sulfamate], the “Grip strength, percentage … (100%)” value was 200 (87.0%).
In the case of `Nc1ccccc1[C@@H]1OC2(CCCCC2)O[C@H]1COS(N)(=O)=O` [Example 74, ((2S,3S)-3-(2-aminophenyl)-1,4-dioxaspiro[4,5]decan-2-yl)methyl sulfamate], the “Grip strength, percentage … (100%)” value is reported as 200 (88.1%).
In the case of `Nc1ccccc1[C@@H]1OC(c2ccccc2)O[C@H]1COS(N)(=O)=O` (stereo partly drawn) [Example 76, ((4S,5S)-5-(2-aminophenyl)-2-phenyl-1,3-dioxolan-4-yl)methyl sulfamate], the “Grip strength, percentage … (100%)” value is reported as 200 (78.5%).
In the case of `NS(=O)(=O)OC[C@@H]1OC(=O)O[C@H]1c1ccccc1[N+](=O)[O-]` [Example 90, ((4S,5S)-5-(2-nitrophenyl)-2-oxo-1,3-dioxolan-4-yl)methyl sulfamate], the “Grip strength, percentage … (100%)” value is reported as 200 (43.8%).
For `Cc1ccccc1[C@@H]1OC(C)(C)O[C@H]1COS(N)(=O)=O` [Example 92, ((4S,5S)-5-(2-methylphenyl)-2,2-dimethyl-1,3-dioxolan-4-yl)methyl sulfamate], the “Grip strength, percentage … (100%)” value was 200 (46.2%).
For `CNc1ccccc1[C@@H]1OC(C)(C)O[C@H]1COS(=O)(=O)NC` [Example 104, ((4S,5S)-5-(2-methylaminophenyl)-2,2-dimethyl-1,3-dioxolan-4-yl)methyl methylsulfamate], the “Grip strength, percentage … (100%)” value was 200 (71.3%).
In the case of `CC1(C)O[C@@H](COS(N)(=O)=O)[C@H](c2ccccc2)O1` [Example 106, ((4S,5S)-5-phenyl-2,2-dimethyl-1,3-dioxolan-4-yl)methyl sulfamate], the “Grip strength, percentage … (100%)” value is reported as 200 (62.8%).
In the case of `CCC1(CC)O[C@@H](COS(N)(=O)=O)[C@H](c2ccccc2)O1` [Example 108, ((4S,5S)-5-phenyl-2,2-diethyl-1,3-dioxolan-4-yl)methyl sulfamate], the “Grip strength, percentage … (100%)” value is reported as 200 (66.8%).
`NS(=O)(=O)OC[C@@H]1OC2(CCCC2)O[C@H]1c1ccccc1` [Example 110, ((2S,3S)-3-phenyl-1,4-dioxaspiro[4,4]nonan-2-yl)methyl sulfamate] was tested, and the “Grip strength, percentage … (100%)” value was 200 (62.9%).
For `NS(=O)(=O)OC[C@@H]1OC2(CCCCC2)O[C@H]1c1ccccc1` [Example 112, ((2S,3S)-3-phenyl-1,4-dioxaspiro[4,5]decan-2-yl)methyl sulfamate], the “Grip strength, percentage … (100%)” value was 200 (33.2%).
`CC1(C)O[C@H](CCOS(N)(=O)=O)[C@@H](Cc2ccccc2)O1` [Example 114, 2-((4R,5R)-5-benzyl-2,2-dimethyl-1,3-dioxolan-4-yl)ethyl sulfamate] was tested, and the “Grip strength, percentage … (100%)” value was 200 (75.4%).
In the case of `CCC1(CC)O[C@H](CCOS(N)(=O)=O)[C@@H](Cc2ccccc2)O1` [Example 116, 2-((4R,5R)-5-benzyl-2,2-diethyl-1,3-dioxolan-4-yl)ethyl sulfamate], the “Grip strength, percentage … (100%)” value is reported as 200 (81.6%).
In the case of `NS(=O)(=O)OCC[C@H]1OC2(CCCC2)O[C@@H]1Cc1ccccc1` [Example 118, 2-((2R,3R)-3-benzyl-1,4-dioxaspiro[4,4]nonan-2-yl)ethyl sulfamate], the “Grip strength, percentage … (100%)” value is reported as 200 (83.7%).
For `NS(=O)(=O)OCC[C@H]1OC2(CCCCC2)O[C@@H]1Cc1ccccc1` [Example 120, 2-((2R,3R)-3-benzyl-1,4-dioxaspiro[4,5]decan-2-yl)ethyl sulfamate], the “Grip strength, percentage … (100%)” value was 200 (80.5%).
With `CC1(C)O[C@H](COS(N)(=O)=O)[C@@H](Cc2ccccc2)O1` [Example 122, ((4R,5R)-5-benzyl-2,2-dimethyl-1,3-dioxolan-4-yl)methyl sulfamate] the “Grip strength, percentage … (100%)” value was 200 (61.6%).
For `CCC1(CC)O[C@H](COS(N)(=O)=O)[C@@H](Cc2ccccc2)O1` [Example 124, ((4R,5R)-5-benzyl-2,2-diethyl-1,3-dioxolan-4-yl)methyl sulfamate], the “Grip strength, percentage … (100%)” value was 200 (81.0%).
For `NS(=O)(=O)OC[C@H]1OC2(CCCC2)O[C@@H]1Cc1ccccc1` [Example 126, ((2R,3R)-3-benzyl-1,4-dioxaspiro[4,4]nonan-2-yl)methyl sulfamate], the “Grip strength, percentage … (100%)” value was 200 (76.7%).
For `NS(=O)(=O)OC[C@H]1OC2(CCCCC2)O[C@@H]1Cc1ccccc1` [Example 128, ((2R,3R)-3-benzyl-1,4-dioxaspiro[4,5]decan-2-yl)methyl sulfamate], the “Grip strength, percentage … (100%)” value was 200 (81.4%).
In the case of `CC1(C)O[C@@H](CCOS(N)(=O)=O)[C@H](c2ccccc2)O1` [Example 130, 2-((4S,5S)-5-phenyl-2,2-dimethyl-1,3-dioxolan-4-yl)ethyl sulfamate], the “Grip strength, percentage … (100%)” value is reported as 200 (91.4%).
`CCC1(CC)O[C@@H](CCOS(N)(=O)=O)[C@H](c2ccccc2)O1` [Example 132, 2-((4S,5S)-5-phenyl-2,2-diethyl-1,3-dioxolan-4-yl)ethyl sulfamate] was tested, and the “Grip strength, percentage … (100%)” value was 200 (25.7%).
In the case of `NS(=O)(=O)OCC[C@@H]1OC2(CCCC2)O[C@H]1c1ccccc1` [Example 134, 2-((2S,3S)-3-phenyl-1,4-dioxaspiro[4,4]nonan-2-yl)ethyl sulfamate], the “Grip strength, percentage … (100%)” value is reported as 200 (90.1%).
With `NS(=O)(=O)OCC[C@@H]1OC2(CCCCC2)O[C@H]1c1ccccc1` [Example 136, 2-((2S,3S)-3-phenyl-1,4-dioxaspiro[4,5]decan-2-yl)ethyl sulfamate] the “Grip strength, percentage … (100%)” value was 200 (80.8%).
`CC1(C)O[C@H](CCOS(N)(=O)=O)[C@@H](Cc2ccccc2Cl)O1` [Example 138, 2-((4R,5R)-5-(2-chlorobenzyl)-2,2-dimethyl-1,3-dioxolan-4-yl)ethyl sulfamate] was tested, and the “Grip strength, percentage … (100%)” value was 200 (70.1%).
`CCC1(CC)O[C@H](CCOS(N)(=O)=O)[C@@H](Cc2ccccc2Cl)O1` [Example 140, 2-((4R,5R)-5-(2-chlorobenzyl)-2,2-diethyl-1,3-dioxolan-4-yl)ethyl sulfamate] was tested, and the “Grip strength, percentage … (100%)” value was 200 (73.4%).
For `NS(=O)(=O)OCC[C@H]1OC2(CCCC2)O[C@@H]1Cc1ccccc1Cl` [Example 142, 2-((2R,3R)-3-(2-chlorobenzyl)-1,4-dioxaspiro[4,4]nonan-2-yl)ethyl sulfamate], the “Grip strength, percentage … (100%)” value was 200 (66.8%).
For `NS(=O)(=O)OCC[C@H]1OC2(CCCCC2)O[C@@H]1Cc1ccccc1Cl` [Example 144, 2-((2R,3R)-3-(2-chlorobenzyl)-1,4-dioxaspiro[4,5]decan-2-yl)ethyl sulfamate], the “Grip strength, percentage … (100%)” value was 200 (62.0%).
In the case of `CC1(C)O[C@H](COS(N)(=O)=O)[C@@H](Cc2ccccc2Cl)O1` [Example 146, ((4R,5R)-5-(2-chlorobenzyl)-2,2-dimethyl-1,3-dioxolan-4-yl)methyl sulfamate], the “Grip strength, percentage … (100%)” value is reported as 200 (79.2%).
In the case of `CCC1(CC)O[C@H](COS(N)(=O)=O)[C@@H](Cc2ccccc2Cl)O1` [Example 148, ((4R,5R)-5-(2-chlorobenzyl)-2,2-diethyl-1,3-dioxolan-4-yl)methyl sulfamate], the “Grip strength, percentage … (100%)” value is reported as 200 (70.2%).
For `NS(=O)(=O)OC[C@H]1OC2(CCCC2)O[C@@H]1Cc1ccccc1Cl` [Example 150, ((2R,3R)-3-(2-chlorobenzyl)-1,4-dioxaspiro[4,4]nonan-2-yl)methyl sulfamate], the “Grip strength, percentage … (100%)” value was 200 (89.8%).
